Results published in ChEMBL document CHEMBL2074396, “Functional characterization of the rat multispecific organic anion transporter OAT1 mediating basolateral uptake of anionic drugs in the kidney” (FEBS Lett, 1998).

How the values were obtained:
[1] = molecular target: T1, Solute carrier family 22 member 6 (Rattus norvegicus, UniProt O35956); test: TP_TRANSPORTER: uptake in Xenopus laevis oocytes; type: functional, cell-based; details: oocyte
T1 sequence (O35956 whole entry): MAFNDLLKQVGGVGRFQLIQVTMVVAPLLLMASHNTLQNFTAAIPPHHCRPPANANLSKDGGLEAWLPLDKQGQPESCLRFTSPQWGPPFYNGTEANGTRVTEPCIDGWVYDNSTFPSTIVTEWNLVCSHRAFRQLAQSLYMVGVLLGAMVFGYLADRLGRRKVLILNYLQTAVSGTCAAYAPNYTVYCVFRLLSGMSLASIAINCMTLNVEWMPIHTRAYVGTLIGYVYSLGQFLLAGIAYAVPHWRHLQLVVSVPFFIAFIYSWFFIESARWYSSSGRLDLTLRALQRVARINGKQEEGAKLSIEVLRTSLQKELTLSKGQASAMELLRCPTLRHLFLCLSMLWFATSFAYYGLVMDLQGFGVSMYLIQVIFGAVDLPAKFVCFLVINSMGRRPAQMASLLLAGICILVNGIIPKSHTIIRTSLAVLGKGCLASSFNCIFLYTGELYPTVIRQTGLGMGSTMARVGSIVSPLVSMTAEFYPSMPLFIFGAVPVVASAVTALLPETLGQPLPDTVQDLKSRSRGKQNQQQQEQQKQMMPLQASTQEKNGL

[2] = molecular target: T1, Solute carrier family 22 member 6; test: TP_TRANSPORTER: inhibition of PAH uptake in Xenopus laevis oocytes; type: functional, cell-based; details: oocyte

Row | Activity [1] | Activity [2] | Compound
1 | is not a substrate [-] |  | Cc1c(F)c(N2CCNC(C)C2)cc2c1c(=O)c(C(=O)O)cn2C1CC1 (centres undefined) [GREPAFLOXACIN]
2 | is not a substrate [-] |  | C[C@H]1COc2c(N3CCN(C)CC3)c(F)cc3c(=O)c(C(=O)O)cn1c23.C[C@H]1COc2c(N3CCN(C)CC3)c(F)cc3c(=O)c(C(=O)O)cn1c23.O [LEVOFLOXACIN]
3 | substrate [+] | inhibitor [+] | Nc1nc2ncc(CNc3ccc(C(=O)N[C@@H](CCC(=O)O)C(=O)O)cc3)nc2c(=O)[nH]1 [FOLIC ACID]
